Measured values: patent US10913727B2, “Modulators of the integrated stress pathway” (Calico Life Sciences LLC, priority 2016, dated 2021)

System: HEK293T cells carrying the ATF4 luciferase reporter
Test: ATF4-Luc assay, in vitro model of Vanishing Cell White Matter Disease (VWMD)
Type: cell-based
Conditions: Homo sapiens, HEK-293T, 1 μg/mL tunicamycin, 7 hours, One Glo luminescence
How it was run: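 Compound at 200 nM and tunicamycin at 1 μg/mL were given together for 7 h to HEK293T cells stably transduced with an ATF4 5′-UTR-driven firefly luciferase reporter. Read-out by luminescence, reported as EC50.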

| Compound | EC50 [nM] |
| --- | --- |
| O=C(COc1ccc2c(c1)OC(F)(F)O2)NC12CC(NC(=O)c3cccnc3)(C1)C2 [Compound 457, N-(3-{2-[(2,2-difluoro-2H-1,3-benzodioxol-5-yl)oxy]acetamido}bicyclo[1.1.1]pentan-1-yl)pyridine-3-carboxamide] | 250 to 1000 |
| Cc1cccnc1C(=O)NC12CC(NC(=O)COc3ccc(Cl)c(Cl)c3)(C1)C2 [Compound 739, N-{3-[2-(3,4-dichlorophenoxy)acetamido]bicyclo[1.1.1]pentan-1-yl}-3-methylpyridine-2-carboxamide] | > 2000 |
| Cn1cnc2cc(C(=O)NC34CC(NC(=O)COc5ccc(Cl)c(F)c5)(C3)C4)ccc2c1=O [Compound 342, N-{3-[2-(4-chloro-3-fluorophenoxy)acetamido]bicyclo[1.1.1]pentan-1-yl}-3-methyl-4-oxo-3,4-dihydroquinazoline-7-carboxamide] | 250 to 1000 |
| Cc1cc(C(=O)NC23CCC(NC(=O)COc4ccc(F)c(F)c4)(CC2)C(O)C3)on1 (stereo not drawn) [Compound 462, N-{4-[2-(3,4-difluorophenoxy)acetamido]-3-hydroxybicyclo[2.2.2]octan-1-yl}-3-methyl-1,2-oxazole-5-carboxamide] | 250 to 1000 |
| O=C(COc1ccc(Cl)c(F)c1)NC12CC(Nc3nnc(-c4ccccc4)o3)(C1)C2 [Compound 404, 2-(4-chloro-3-fluorophenoxy)-N-{3-[(5-phenyl-1,3,4-oxadiazol-2-yl)amino]bicyclo[1.1.1]pentan-1-yl}acetamide] | > 2000 |
| CCOc1ccsc1C(=O)NC12CC(NC(=O)COc3ccc(Cl)c(F)c3)(C1)C2 [Compound 551, N-{3-[2-(4-chloro-3-fluorophenoxy)acetamido]bicyclo[1.1.1]pentan-1-yl}-3-ethoxythiophene-2-carboxamide] | 50 to 250 |
| Cc1ccc(C(=O)NC23CC(NC(=O)COc4ccc(Cl)c(F)c4)(C2)C3)nc1 [Compound 146, N-{3-[2-(4-chloro-3-fluorophenoxy)acetamido]bicyclo[1.1.1]pentan-1-yl}-5-methylpyridine-2-carboxamide] | 50 to 250 |
| Cn1nc(C(C)(C)C)cc1C(=O)NC12CC(NC(=O)COc3ccc(Cl)c(F)c3)(C1)C2 [Compound 338, 3-tert-butyl-N-{3-[2-(4-chloro-3-fluorophenoxy)acetamido]bicyclo[1.1.1]pentan-1-yl}-1-methyl-1H-pyrazole-5-carboxamide] | 50 to 250 |
| O=C(COc1ccc(Cl)c(F)c1)NC12CC(NC(=O)c3coc4ccccc34)(C1)C2 [Compound 243, N-{3-[2-(4-chloro-3-fluorophenoxy)acetamido]bicyclo[1.1.1]pentan-1-yl}-1-benzofuran-3-carboxamide] | 250 to 1000 |
| O=C(COc1ccc(Cl)c(F)c1)NC12CC(NC(=O)c3cc4n(n3)CCCN4)(C1)C2 [Compound 125, N-{3-[2-(4-chloro-3-fluorophenoxy)acetamido]bicyclo[1.1.1]pentan-1-yl}-4,5,6,7-tetrahydropyrazolo[1,5-a]pyrimidine-2-carboxamide] | > 2000 |
| COc1cccc(F)c1C(=O)NC12CC(NC(=O)COc3ccc(Cl)c(F)c3)(C1)C2 [Compound 528, N-{3-[2-(4-chloro-3-fluorophenoxy)acetamido]bicyclo[1.1.1]pentan-1-yl}-2-fluoro-6-methoxybenzamide] | > 2000 |
| CCc1cc(C(=O)NC23CC(NC(=O)COc4ccc(Cl)c(F)c4)(C2)C3)[nH]n1 [Compound 275, N-{3-[2-(4-chloro-3-fluorophenoxy)acetamido]bicyclo[1.1.1]pentan-1-yl}-3-ethyl-1H-pyrazole-5-carboxamide] | 50 to 250 |
| Cc1cc(C(=O)NC23CCC(NC(=O)COc4ccc(Cl)c(F)c4)(CC2)[C@@H](O)C3)on1 (single isomer, unassigned) [Compound 358] | < 50 |
| O=C(COc1ccc(Cl)c(F)c1)NC12CC(NC(=O)c3cnc(C(F)F)s3)(C1)C2 [Compound 443, N-{3-[2-(4-chloro-3-fluorophenoxy)acetamido]bicyclo[1.1.1]pentan-1-yl}-2-(difluoromethyl)-1,3-thiazole-5-carboxamide] | < 50 |
| O=C(COc1ccc(Cl)c(F)c1)NC12CC(NC(=O)c3ccc(Cl)c(F)c3)(C1)C2 [Compound 692, 4-chloro-N-{3-[2-(4-chloro-3-fluorophenoxy)acetamido]bicyclo[1.1.1]pentan-1-yl}-3-fluorobenzamide] | 50 to 250 |
| O=C(COc1ccc(Cl)c(F)c1)NC12CCC(NC(=O)c3cncs3)(CC1)CC2O (stereo not drawn) [Compound 593, N-{4-[2-(4-chloro-3-fluorophenoxy)acetamido]-3-hydroxybicyclo[2.2.2]octan-1-yl}-1,3-thiazole-5-carboxamide] | 50 to 250 |
| NCc1ccnc(C(=O)NC23CC(NC(=O)COc4ccc(Cl)c(F)c4)(C2)C3)c1 [Compound 193, 4-(aminomethyl)-N-{3-[2-(4-chloro-3-fluorophenoxy)acetamido]bicyclo[1.1.1]pentan-1-yl}pyridine-2-carboxamide] | 50 to 250 |

| Compound | EC50 [nM] |
| --- | --- |
| Cn1cc(-c2cc(C(=O)NC34CCC(NC(=O)COc5ccc(Cl)c(F)c5)(CC3)C(O)C4)on2)cn1 (stereo not drawn) [Compound 633, N-{4-[2-(4-chloro-3-fluorophenoxy)acetamido]-3-hydroxybicyclo[2.2.2]octan-1-yl}-3-(1-methyl-1H-pyrazol-4-yl)-1,2-oxazole-5-carboxamide] | 50 to 250 |
| O=C(COc1ccc(Cl)c(F)c1)NC12CC(NC(=O)c3cc4ccccc4cn3)(C1)C2 [Compound 660, N-{3-[2-(4-chloro-3-fluorophenoxy)acetamido]bicyclo[1.1.1]pentan-1-yl}isoquinoline-3-carboxamide] | 250 to 1000 |
| COc1ccc(C(=O)NC23CC(NC(=O)COc4ccc(Cl)c(F)c4)(C2)C3)nc1 [Compound 141, N-{3-[2-(4-chloro-3-fluorophenoxy)acetamido]bicyclo[1.1.1]pentan-1-yl}-5-methoxypyridine-2-carboxamide] | 250 to 1000 |
| Cn1cc(-c2cc(C(=O)NC34CC(NC(=O)COc5ccc(Cl)c(F)c5)(C3)C4)on2)cn1 [Compound 835, N-{3-[2-(4-chloro-3-fluorophenoxy)acetamido]bicyclo[1.1.1]pentan-1-yl}-3-(1-methyl-1H-pyrazol-4-yl)-1,2-oxazole-5-carboxamide] | 1000 to 2000 |
| Cc1cnc2cccc(C(=O)NC34CC(NC(=O)COc5ccc(Cl)c(F)c5)(C3)C4)c2n1 [Compound 843, N-{3-[2-(4-chloro-3-fluorophenoxy)acetamido]bicyclo[1.1.1]pentan-1-yl}-3-methylquinoxaline-5-carboxamide] | > 2000 |
| CC(C)(C)[Si](C)(C)OCCOc1ccc(C(=O)NC23CC(NC(=O)COc4ccc(Cl)c(F)c4)(C2)C3)cn1 [Compound 157, 6-(2-{[tert-butyl(dimethyl)silyl]oxy}ethoxy)-N-{3-[2-(4-chloro-3-fluorophenoxy)acetamido]bicyclo[1.1.1]pentan-1-yl}pyridine-3-carboxamide] | > 2000 |
| CC(C)Oc1ccc(C(=O)NC23CCC(NC(=O)COc4ccc(Cl)c(F)c4)(CC2)C(O)C3)nc1 (stereo not drawn) [Compound 912, N-{4-[2-(4-chloro-3-fluorophenoxy)acetamido]-3-hydroxybicyclo[2.2.2]octan-1-yl}-5-[(propan-2-yl)oxy]pyridine-2-carboxamide] | < 50 |
| O=C(COc1ccc(Cl)c(F)c1)NC12CC(NC(=O)c3ccc(Cl)cc3)(C1)C2 [Compound 199, 4-chloro-N-{3-[2-(4-chloro-3-fluorophenoxy)acetamido]bicyclo[1.1.1]pentan-1-yl}benzamide] | 50 to 250 |
| O=C(COc1ccc(Cl)c(F)c1)NC12CCC(NC(=O)c3cnc(C4CC4)cn3)(CC1)C[C@@H]2O [Compound 653, N-{(3S)-4-[2-(4-chloro-3-fluorophenoxy)acetamido]-3-hydroxybicyclo[2.2.2]octan-1-yl}-5-cyclopropylpyrazine-2-carboxamide] | 250 to 1000 |
| CC(O)c1ncc(C(=O)NC23CC(NC(=O)COc4ccc(Cl)c(F)c4)(C2)C3)s1 (stereo not drawn) [Compound 476, N-{3-[2-(4-chloro-3-fluorophenoxy)acetamido]bicyclo[1.1.1]pentan-1-yl}-2-(1-hydroxyethyl)-1,3-thiazole-5-carboxamide] | 250 to 1000 |
| Cc1cc2c(NC34CC(NC(=O)COc5ccc6c(c5)OC(F)(F)O6)(C3)C4)nccn2n1 [Compound 422, 2-[(2,2-difluoro-2H-1,3-benzodioxol-5-yl)oxy]-N-{3-[(2-methylpyrazolo[1,5-a]pyrazin-4-yl)amino]bicyclo[1.1.1]pentan-1-yl}acetamide] | 50 to 250 |
| CCOC(=O)c1ccnc(C(=O)NC23CC(NC(=O)COc4ccc(Cl)c(F)c4)(C2)C3)c1 [Compound 204, ethyl 2-({3-[2-(4-chloro-3-fluorophenoxy)acetamido]bicyclo[1.1.1]pentan-1-yl}carbamoyl)pyridine-4-carboxylate] | 50 to 250 |
| O=C(COc1ccc(Cl)c(F)c1)NC12CCC(NC(=O)c3cc(-c4c(F)cccc4F)no3)(CC1)CC2O (stereo not drawn) [Compound 409, N-{4-[2-(4-chloro-3-fluorophenoxy)acetamido]-3-hydroxybicyclo[2.2.2]octan-1-yl}-3-(2,6-difluorophenyl)-1,2-oxazole-5-carboxamide] | 50 to 250 |
| CCOc1ccccc1C(=O)NC12CC(NC(=O)COc3ccc(Cl)c(F)c3)(C1)C2 [Compound 538, N-{3-[2-(4-chloro-3-fluorophenoxy)acetamido]bicyclo[1.1.1]pentan-1-yl}-2-ethoxybenzamide] | < 50 |
| COc1ccsc1C(=O)NC12CC(NC(=O)COc3ccc(Cl)c(F)c3)(C1)C2 [Compound 548, N-{3-[2-(4-chloro-3-fluorophenoxy)acetamido]bicyclo[1.1.1]pentan-1-yl}-3-methoxythiophene-2-carboxamide] | > 2000 |
| CC(C)c1cc(C(=O)NC23CCC(NC(=O)COc4ccc(Cl)c(F)c4)(CC2)C(O)C3)on1 (stereo not drawn) [Compound 577, N-{4-[2-(4-chloro-3-fluorophenoxy)acetamido]-3-hydroxybicyclo[2.2.2]octan-1-yl}-3-(propan-2-yl)-1,2-oxazole-5-carboxamide] | 50 to 250 |
